Several values for one entry are separate records, joined by “and”; a condition that tells them apart may be missing. Equal values may be shown once.
Experiment: xn = mol fraction of the nth substance listed

CC(C)=O + Cc1ccccc1
Conditions	viscosity
293.15 K, 101.32 kPa, x2 = 0.072	0.3349 mPa·s
293.15 K, 101.32 kPa, x2 = 0.148	0.3525 mPa·s
293.15 K, 101.32 kPa, x2 = 0.229	0.374 mPa·s
293.15 K, 101.32 kPa, x2 = 0.317	0.3966 mPa·s
293.15 K, 101.32 kPa, x2 = 0.409	0.42 mPa·s
293.15 K, 101.32 kPa, x2 = 0.509	0.4506 mPa·s
293.15 K, 101.32 kPa, x2 = 0.617	0.4775 mPa·s
293.15 K, 101.32 kPa, x2 = 0.735	0.5095 mPa·s
293.15 K, 101.32 kPa, x2 = 0.862	0.5472 mPa·s
298.15 K, 101 kPa, x1 = 0.0233	0.548 mPa·s
298.15 K, 101 kPa, x1 = 0.0652	0.537 mPa·s
298.15 K, 101 kPa, x1 = 0.1349	0.518 mPa·s
298.15 K, 101 kPa, x1 = 0.2009	0.499 mPa·s
298.15 K, 101 kPa, x1 = 0.301	0.475 mPa·s
298.15 K, 101 kPa, x1 = 0.3387	0.465 mPa·s
298.15 K, 101 kPa, x1 = 0.412	0.445 mPa·s
298.15 K, 101 kPa, x1 = 0.5133	0.419 mPa·s
298.15 K, 101 kPa, x1 = 0.515	0.418 mPa·s
298.15 K, 101 kPa, x1 = 0.6017	0.396 mPa·s
298.15 K, 101 kPa, x1 = 0.6968	0.372 mPa·s
298.15 K, 101 kPa, x1 = 0.7979	0.349 mPa·s
298.15 K, 101 kPa, x1 = 0.8969	0.325 mPa·s
298.15 K, 101 kPa, x2 = 0.0702	0.3418 mPa·s and 0.3418 mPa·s
298.15 K, 101 kPa, x2 = 0.1468	0.3759 mPa·s and 0.3759 mPa·s
298.15 K, 101 kPa, x2 = 0.2269	0.4076 mPa·s and 0.4076 mPa·s
298.15 K, 101 kPa, x2 = 0.3135	0.4383 mPa·s and 0.4383 mPa·s
298.15 K, 101 kPa, x2 = 0.4051	0.4662 mPa·s and 0.4662 mPa·s
298.15 K, 101 kPa, x2 = 0.5072	0.4893 mPa·s and 0.4893 mPa·s
298.15 K, 101 kPa, x2 = 0.616	0.5092 mPa·s and 0.5092 mPa·s
298.15 K, 101 kPa, x2 = 0.7355	0.5293 mPa·s and 0.5293 mPa·s
298.15 K, 101 kPa, x2 = 0.8629	0.5462 mPa·s and 0.5462 mPa·s
298.15 K, 101.32 kPa, x2 = 0.073	0.3172 mPa·s
298.15 K, 101.32 kPa, x2 = 0.148	0.3344 mPa·s
298.15 K, 101.32 kPa, x2 = 0.229	0.353 mPa·s
298.15 K, 101.32 kPa, x2 = 0.317	0.3764 mPa·s
298.15 K, 101.32 kPa, x2 = 0.41	0.3994 mPa·s
298.15 K, 101.32 kPa, x2 = 0.509	0.4236 mPa·s
298.15 K, 101.32 kPa, x2 = 0.618	0.4521 mPa·s
298.15 K, 101.32 kPa, x2 = 0.735	0.4807 mPa·s
298.15 K, 101.32 kPa, x2 = 0.862	0.5138 mPa·s
303.15 K, 101 kPa, x2 = 0.0702	0.3218 mPa·s and 0.3218 mPa·s
303.15 K, 101 kPa, x2 = 0.0929	0.3192 mPa·s
303.15 K, 101 kPa, x2 = 0.1468	0.3527 mPa·s and 0.3527 mPa·s
303.15 K, 101 kPa, x2 = 0.2269	0.381 mPa·s and 0.381 mPa·s
303.15 K, 101 kPa, x2 = 0.3135	0.4098 mPa·s and 0.4098 mPa·s
303.15 K, 101 kPa, x2 = 0.3674	0.4169 mPa·s
303.15 K, 101 kPa, x2 = 0.4051	0.4358 mPa·s and 0.4358 mPa·s
303.15 K, 101 kPa, x2 = 0.5072	0.4553 mPa·s and 0.4553 mPa·s
303.15 K, 101 kPa, x2 = 0.616	0.475 mPa·s and 0.475 mPa·s
303.15 K, 101 kPa, x2 = 0.7355	0.4947 mPa·s and 0.4947 mPa·s
303.15 K, 101 kPa, x2 = 0.8102	0.4984 mPa·s
303.15 K, 101 kPa, x2 = 0.8629	0.5144 mPa·s and 0.5144 mPa·s
308.15 K, 101 kPa, x2 = 0.0702	0.3021 mPa·s and 0.3021 mPa·s
308.15 K, 101 kPa, x2 = 0.1468	0.3267 mPa·s and 0.3267 mPa·s
308.15 K, 101 kPa, x2 = 0.2269	0.3517 mPa·s and 0.3517 mPa·s
308.15 K, 101 kPa, x2 = 0.3135	0.3785 mPa·s and 0.3785 mPa·s
308.15 K, 101 kPa, x2 = 0.4051	0.404 mPa·s and 0.404 mPa·s
308.15 K, 101 kPa, x2 = 0.5072	0.425 mPa·s and 0.425 mPa·s
308.15 K, 101 kPa, x2 = 0.616	0.4443 mPa·s and 0.4443 mPa·s
308.15 K, 101 kPa, x2 = 0.7355	0.4638 mPa·s and 0.4638 mPa·s
308.15 K, 101 kPa, x2 = 0.8629	0.4848 mPa·s and 0.4848 mPa·s
308.15 K, 101.32 kPa, x2 = 0.073	0.2891 mPa·s
308.15 K, 101.32 kPa, x2 = 0.149	0.3036 mPa·s
308.15 K, 101.32 kPa, x2 = 0.23	0.3204 mPa·s
308.15 K, 101.32 kPa, x2 = 0.318	0.3407 mPa·s
308.15 K, 101.32 kPa, x2 = 0.411	0.3615 mPa·s
308.15 K, 101.32 kPa, x2 = 0.51	0.3829 mPa·s
308.15 K, 101.32 kPa, x2 = 0.619	0.4072 mPa·s
308.15 K, 101.32 kPa, x2 = 0.736	0.4335 mPa·s
308.15 K, 101.32 kPa, x2 = 0.862	0.463 mPa·s
313.15 K, 101 kPa, x2 = 0.0929	0.2858 mPa·s
313.15 K, 101 kPa, x2 = 0.3674	0.3952 mPa·s
313.15 K, 101 kPa, x2 = 0.8102	0.4622 mPa·s
318.15 K, 101.32 kPa, x2 = 0.073	0.2628 mPa·s
318.15 K, 101.32 kPa, x2 = 0.149	0.2767 mPa·s
318.15 K, 101.32 kPa, x2 = 0.23	0.2923 mPa·s
318.15 K, 101.32 kPa, x2 = 0.319	0.3081 mPa·s
318.15 K, 101.32 kPa, x2 = 0.412	0.3264 mPa·s
318.15 K, 101.32 kPa, x2 = 0.511	0.347 mPa·s
318.15 K, 101.32 kPa, x2 = 0.61	0.367 mPa·s
318.15 K, 101.32 kPa, x2 = 0.737	0.3916 mPa·s
318.15 K, 101.32 kPa, x2 = 0.863	0.4162 mPa·s
323.15 K, 101 kPa, x2 = 0.0929	0.2564 mPa·s
323.15 K, 101 kPa, x2 = 0.3674	0.3538 mPa·s
323.15 K, 101 kPa, x2 = 0.8102	0.4467 mPa·s
